This test addresses T1, DPP-IV (Homo sapiens, UniProt P27487).
T1 construct: purchased Enzyme Systems Products SPE-01
Description: In vitro Assay for Dipeptidyl Peptidase Inhibition. It is filed as biochemical. Conditions: in vitro activity, Gly-Pro-4-methoxy-β-naphthylamide substrate, overnight at 37° C., read-out: IC50 (concentration of test compound required for 50% inhibition). How it is done: 150 μL of an enzyme-substrate solution is pipetted into microtiter wells of a polystyrene 96-well plate, and maintained at 4° C. The enzyme-substrate solution comprises 50 μM Gly-Pro4-methoxy B naphthylamide HCl in 50 mM Tris assay buffer pH 7.3 containing 0.1M sodium chloride, 0.1% (v/v) Triton and 50 μU/mL DPP-IV (Enzyme Systems Products Cat#SPE-01, DPP-IV 5 mU/mL stock). 5μL/well of compounds of Formula I are added, bringing the final compound of Formula I concentrations to 3 μM-10 nM per well.
Controls. Enzyme is omitted from four (4) wells, as a reagent blank. 5 μL of 3 mM Diprotin A is added to four wells as a positive quality control, providing a final Diprotin A concentration of 100 μM. To measure total enzyme activity (i.e. a negative control), without the influence of any compounds of Formula I, 5 μL of distilled water is added to four wells.
The entire assay is incubated overnight (about 14-18 hours) at 37° C.

This passage reports IC50 results from patent publication US20050043292A1, “Fluorinated lysine derivatives as dipeptidyl peptidase IV inhibitors” (Pfizer Inc, priority 2003, published 2005).

Counter-ions that a name gives are not always drawn.

T1 sequence (P27487 whole entry, species assumed): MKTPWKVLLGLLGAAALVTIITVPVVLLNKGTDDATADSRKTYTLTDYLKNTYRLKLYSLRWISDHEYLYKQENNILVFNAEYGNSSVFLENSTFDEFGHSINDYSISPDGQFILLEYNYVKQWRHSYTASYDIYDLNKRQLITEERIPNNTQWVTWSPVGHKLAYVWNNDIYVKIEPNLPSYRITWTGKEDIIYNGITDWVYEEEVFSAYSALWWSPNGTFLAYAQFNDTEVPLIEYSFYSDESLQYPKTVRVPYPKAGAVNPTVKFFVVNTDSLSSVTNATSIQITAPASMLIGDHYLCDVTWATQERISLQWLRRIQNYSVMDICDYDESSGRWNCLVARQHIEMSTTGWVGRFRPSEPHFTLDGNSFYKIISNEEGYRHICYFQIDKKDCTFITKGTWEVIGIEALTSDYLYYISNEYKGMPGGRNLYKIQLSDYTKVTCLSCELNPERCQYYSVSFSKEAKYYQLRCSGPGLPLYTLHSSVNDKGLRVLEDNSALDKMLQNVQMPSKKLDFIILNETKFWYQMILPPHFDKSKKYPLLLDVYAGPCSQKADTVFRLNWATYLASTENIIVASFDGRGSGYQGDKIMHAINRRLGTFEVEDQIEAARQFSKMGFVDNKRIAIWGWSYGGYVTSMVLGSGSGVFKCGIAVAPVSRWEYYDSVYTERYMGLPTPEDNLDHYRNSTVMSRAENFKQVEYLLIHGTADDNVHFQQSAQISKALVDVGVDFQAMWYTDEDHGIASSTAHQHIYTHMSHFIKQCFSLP

Turning to `N[C@@H](CCCCNC(=O)COc1ccccc1)C(=O)N1CC(F)(F)C(F)(F)C1` [Example 6, (S)-N-[5-Amino-6-oxo-6-(3,3,4,4-tetrafluoro-pyrrolidin-1-yl)-hexyl]-2-phenoxy-acetamide Hydrochloride], the IC50 is ~1.4 µM.
